# From patent US20260317344A1, “EGFR INHIBITORS FOR TREATING DISEASE” (BLOSSOMHILL THERAPEUTICS, INC., priority 2023, published 2026)
# What was measured:
# Format in all cases: cell-based
# [1] = test system: HCC827 cells; experiment: 5-Day CellTiter Glo (CTG) cell proliferation assay, HCC827; conditions: Homo sapiens; HCC827 cells (d746-750 EGFR), 5-day CTG proliferation, 120 hours; read-out: HCC827 IC50
# Experimental: (§1) 5-Day CellTiter Glo (CTG) Cell Proliferation Assays (PC9, H1975, H827)
# (§2) Cell proliferation assays were carried out in NSCLC cells with EGFR activation mutations. Both PC-9 cells and HCC827 cells (purchased from DSMZ) carry a Glu746-Ala750 deletion (d746-750) mutation in exon 19 of the EGFR gene and NCI-H1975 cells carry both L858R activation mutation and T790M gatekeeper mutation in the EGFR gene. One thousand PC-9, NCI-H1975 or HCC827 cells/100 μL per well were seeded in 96-well black plate with transparent bottom and then treated with indicated compounds in a 9-dose dilution series dispensed using TECAN d300e liquid dispenser. Cells were incubated with compounds for 120 hours at 37° C. and 5% CO2. Cell proliferation was measured using CellTiter-Glo 2.0 luciferase-based ATP detection assay (Promega, Madison, WI) at […] per well following the manufacturer's protocol. Plates were then read on a TECAN Sparks multimode microplate reader. Data was analyzed using GraphPad Prism 9 (GraphPad Software, San Diego, CA) to obtain IC50 values.
# [2] = test system: PC-9 cells; experiment: 5-Day CellTiter Glo (CTG) cell proliferation assay, PC-9; conditions: Homo sapiens; PC-9 cells (d746-750 EGFR), 5-day CTG proliferation, 120 hours; read-out: PC-9 IC50
# Experimental: as §1, §2
# [3] = test system: NCI-H1975 cells; experiment: 5-Day CellTiter Glo (CTG) cell proliferation assay, NCI-H1975; conditions: Homo sapiens; NCI-H1975 cells (L858R/T790M EGFR), 5-day CTG proliferation, 120 hours; read-out: H1975 IC50
# Experimental: as §1, §2
SMILES,IC50 [1] [nM],IC50 [2] [nM],IC50 [3] [nM]
"CCOc1nn([C@@H](C)CO)c2c1/C=C/c1n[nH]c3c(C)nc(cc13)-c1c(C)nn(C)c1O[C@H](C)[C@@H](C)N(C)C2 [Ex. 132a, (2S)-2-[(11R,17E)-16-ethoxy-6,8,10,11,12,20-hexamethyl-2,8,10,11,12,13-hexahydro-14H-5,3-(azenometheno)tripyrazolo[3,4-f:3′,4′-j:4″,3″-n][1,4]oxazacyclopentadecin-14-yl]propan-1-ol]",0.41,1.12,0.77
"CCOc1nn(C)c2c1/C=C/c1n[nH]c3c(C)nc(cc13)-c1c(C)nn(C)c1O[C@@H](C)CN(C(C)=O)C2 [Ex. 131, 1-[(10S,17E)-16-ethoxy-6,8,10,14,20-pentamethyl-2,8,10,11,13,14-hexahydro-12H-5,3-(azenometheno)tripyrazolo[3,4-f:3′,4′-j:4″,3″-n][1,4]oxazacyclopentadecin-12-yl]ethan-1-one]",60.5,353,671
"CCOc1nn(C)c2c1/C=C/c1n[nH]c3c(C)nc(cc13)-c1c(C)nn(C)c1O[C@@H](C)CN(C(=O)C1CC1)C2 [Ex. 136, cyclopropyl[(10S,17E)-16-ethoxy-6,8,10,14,20-pentamethyl-2,8,10,11,13,14-hexahydro-12H-5,3-(azenometheno)tripyrazolo[3,4-f:3′,4′-j:4″,3″-n][1,4]oxazacyclopentadecin-12-yl]methanone]",34.4,67,266
"COCc1nn(C)c2c1-c1cc3c(n[nH]c3c(C)n1)/C=C/c1cnn([C@@H](C)CO)c1CN(C1CC1)[C@H](C)CO2 [Ex. 140, (2S)-2-[(11R,17E)-12-cyclopropyl-6-(methoxymethyl)-8,11,20-trimethyl-2,8,10,11,12,13-hexahydro-14H-5,3-(azenometheno)tripyrazolo[3,4-f:3′,4′-j:4″,3″-n][1,4]oxazacyclopentadecin-14-yl]propan-1-ol]",6.1,29.9,–
"Cc1nn(C)c2c1-c1cc3c(n[nH]c3c(C)n1)/C=C/c1cnn(CCO)c1CN(C1CC1)C[C@H](C)O2 [Ex. 133, 2-[(10S,17E)-12-cyclopropyl-6,8,10,20-tetramethyl-2,8,10,11,12,13-hexahydro-14H-5,3-(azenometheno)tripyrazolo[3,4-f:3′,4′-j:4″,3″-n][1,4]oxazacyclopentadecin-14-yl]ethan-1-ol]",8.87,34.2,40.5
"Cc1nn(C)c2c1-c1cc3c(n[nH]c3c(C)n1)/C=C/c1cnn([C@@H](C)CO)c1CN(C1CC1)C[C@H](C)O2 [Ex. 127, (2S)-2-[(10S,17E)-12-cyclopropyl-6,8,10,20-tetramethyl-2,8,10,11,12,13-hexahydro-14H-5,3-(azenometheno)tripyrazolo[3,4-f:3′,4′-j:4″,3″-n][1,4]oxazacyclopentadecin-14-yl]propan-1-ol]",0.37,1.26,1.92
"CCOc1nn([C@@H](C)CO)c2c1/C=C/c1n[nH]c3c(O)nc(cc13)-c1c(C)nn(C)c1O[C@@H](C)CN(C)C2 [Ex. 99, (10S,17E)-16-ethoxy-14-[(2S)-1-hydroxypropan-2-yl]-6,8,10,12-tetramethyl-2,10,11,12,13,14-hexahydro-8H-5,3-(azenometheno)tripyrazolo[3,4-f:3′,4′-j:4″,3″-n][1,4]oxazacyclopentadecin-20-ol]",38.1,351,338
"CCOc1nn(C)c2c1/C=C/c1n[nH]c3c(C)nc(cc13)-c1c(C)nn(C)c1O[C@@H](C)CN(C(=O)C(C)C)C2 [Ex. 137, 1-[(10S,17E)-16-ethoxy-6,8,10,14,20-pentamethyl-2,8,10,11,13,14-hexahydro-12H-5,3-(azenometheno)tripyrazolo[3,4-f:3′,4′-j:4″,3″-n][1,4]oxazacyclopentadecin-12-yl]-2-methylpropan-1-one]",90.7,113,–
"COCc1nn(C)c2c1-c1cc3c(n[nH]c3c(C)n1)/C=C/c1cnn([C@@H](C)CO)c1CN(C1CC1)C[C@H](C)O2 [Ex. 139, (2S)-2-[(10S,17E)-12-cyclopropyl-6-(methoxymethyl)-8,10,20-trimethyl-2,8,10,11,12,13-hexahydro-14H-5,3-(azenometheno)tripyrazolo[3,4-f:3′,4′-j:4″,3″-n][1,4]oxazacyclopentadecin-14-yl]propan-1-ol]",0.82,4.35,429
"COCc1nn(C)c2c1-c1cc3c(n[nH]c3c(C)n1)/C=C/c1cnn(C)c1CN(C(=O)CCN(C)C)C[C@H](C)O2 [Ex. 143, 3-(dimethylamino)-1-[(10S,17E)-6-(methoxymethyl)-8,10,14,20-tetramethyl-2,8,10,11,13,14-hexahydro-12H-5,3-(azenometheno)tripyrazolo[3,4-f:3′,4′-j:4″,3″-n][1,4]oxazacyclopentadecin-12-yl]propan-1-one]",9.09,21.6,519
"CCOc1nn([C@@H](C)CO)c2c1/C=C/c1n[nH]c3c(OC)nc(cc13)-c1c(C)nn(C)c1O[C@@H](C)CN(C)C2 [Ex. 96, (2S)-2-[(10S,17E)-16-ethoxy-20-methoxy-6,8,10,12-tetramethyl-2,8,10,11,12,13-hexahydro-14H-5,3-(azenometheno)tripyrazolo[3,4-f:3′,4′-j:4″,3″-n][1,4]oxazacyclopentadecin-14-yl]propan-1-ol]",2.97,25.5,27.2
"CCOc1nn(C)c2c1/C=C/c1n[nH]c3c(C)nc(cc13)-c1c(C)nn(C)c1O[C@@H](C)CN(C(=O)CC)C2 [Ex. 135, 1-[(10S,17E)-16-ethoxy-6,8,10,14,20-pentamethyl-2,8,10,11,13,14-hexahydro-12H-5,3-(azenometheno)tripyrazolo[3,4-f:3′,4′-j:4″,3″-n][1,4]oxazacyclopentadecin-12-yl]propan-1-one]",73.8,116,–
"CCOc1nn([C@@H](C)CO)c2c1/C=C/c1n[nH]c3cnc(cc13)-c1c(COC)nn(C)c1O[C@@H](C)CN(C)C2 [Ex. 130, (2S)-2-[(10S,17E)-16-ethoxy-6-(methoxymethyl)-8,10,12-trimethyl-2,8,10,11,12,13-hexahydro-14H-5,3-(azenometheno)tripyrazolo[3,4-f:3′,4′-j:4″,3″-n][1,4]oxazacyclopentadecin-14-yl]propan-1-ol]",0.75,2.32,176
"CCOc1nn([C@@H](C)CO)c2c1/C=C/c1n[nH]c3c(C)nc(cc13)-c1c(C)nn(C)c1O[C@@H](C)[C@@H](C)N(C)C2 [Ex. 132b, (2S)-2-[(11R,17E)-16-ethoxy-6,8,10,11,12,20-hexamethyl-2,8,10,11,12,13-hexahydro-14H-5,3-(azenometheno)tripyrazolo[3,4-f:3′,4′-j:4″,3″-n][1,4]oxazacyclopentadecin-14-yl]propan-1-ol]",0.29,0.54,0.7
"Cc1nn(C)c2c1-c1cc3c(n[nH]c3c(C)n1)/C=C/c1cnn([C@@H](C)CO)c1CN(C1CC1)[C@H](C)CO2 [Ex. 128, (2S)-2-[(11R,17E)-12-cyclopropyl-6,8,11,20-tetramethyl-2,8,10,11,12,13-hexahydro-14H-5,3-(azenometheno)tripyrazolo[3,4-f:3′,4′-j:4″,3″-n][1,4]oxazacyclopentadecin-14-yl]propan-1-ol]",3.32,17,56.8
"CCOc1nn([C@@H](C)CO)c2c1/C=C/c1n[nH]c3c(C)nc(cc13)-c1c(C)nn(C)c1O[C@@H](C)CN(CC)C2 [Ex. 145, (2S)-2-[(10S,17E)-16-ethoxy-12-ethyl-6,8,10,20-tetramethyl-2,8,10,11,12,13-hexahydro-14H-5,3-(azenometheno)tripyrazolo[3,4-f:3′,4′-j:4″,3″-n][1,4]oxazacyclopentadecin-14-yl]propan-1-ol]",0.24,0.37,0.58
